The subject of series [1] is off-target genomic sites. The experiment in a line: Off-target oligo insertion based assay in HEK293_Cas9 cells, dgRNAs and sgRNAs (Tables 23, 24). In kind it is cell-based, human. To be noted: Table 23; TTR dgRNAs in HekCas9 cells, oligo insertion based assay. The method in brief:
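In HEK293 cells constitutively expressing Spy Cas9, crRNA (15 nM) plus trRNA (15 nM), or modified sgRNAs, were lipofected with donor oligo (10 nM). Genomic DNA was collected at 24 h, and oligo-insertion libraries were sequenced on MiSeq/HiSeq to map potential off-target cleavage sites.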

The test system of series [2] is TTR. In words: TTR editing in primary human hepatocytes transfected with Spy Cas9 mRNA and dgRNAs (Table 9). Format: cell-based. To be noted: dgRNA co-transfected with Spy Cas9 mRNA (SEQ ID NO:2). The method in brief:
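PHH sequentially lipofected with Spy Cas9 mRNA (100 ng), then crRNA plus tracrRNA (25 nM each) dual-guide lipoplex. Cells harvested 24, 48 or 72 h post-transfection; TTR target amplicons sequenced on Illumina MiSeq, editing given as percent reads with indels or substitutions over total reads.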

Series [3] relates to TTR. The experiment in a line: TTR editing in primary human hepatocytes electroporated with Spy Cas9 protein loaded with dgRNAs (Table 7). In kind it is cell-based. To be noted: dgRNA electroporated with Spy Cas9 protein (RNP). In a few lines: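 Editing efficiency is the fraction of NGS reads carrying insertions, deletions or substitutions at the TTR target, measured on MiSeq amplicons from DNA harvested 24, 48 or 72 h post-delivery. Cas9–dgRNA ribonucleoprotein was nucleofected (P3 buffer, EX-147) into primary human or cyno hepatocytes.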

“AUUGGUGACGACAGCCGUGG (tested as dual guide RNA, chemistry not given here) [CR003389]”: the “# Sites (off-target integration sites detected)” value (“# Sites” below) in series [1] is 2. Besides, in series [2], the “Avg % Deletion” value turned out to be 2.83%, the “Avg % Edit” value is recorded as 44.27% and the “Avg % Insert” value is 41.47%. Further, in series [3], the “Avg % Deletion” value worked out at 0.50%, the “Avg % Edit” value is on record as 27.67% and the “Avg % Insert” value is given as 27.20%.

On to “GUGAGUCUGGAGAGCUGCAU (tested as dual guide RNA, chemistry not given here) [CR003360]”, for which, in series [1], the “# Sites” value turned out to be 0. Besides, in series [2], the “Avg % Deletion” value worked out at 0.90%, the “Avg % Edit” value stood at 14.90% and the “Avg % Insert” value is reported as 14.13%. Further, in series [3], the “Avg % Deletion” value is given as 0.63%, the “Avg % Edit” value is listed as 32.23% and the “Avg % Insert” value is on record as 31.67%.

In the case of “GGGAUUGGUGACGACAGCCG (tested as dual guide RNA, chemistry not given here) [CR003390]”, in series [1], the “# Sites” value is listed as 1. Further, in series [2], the “Avg % Deletion” value is given as 1.60%, the “Avg % Edit” value stood at 20.23% and the “Avg % Insert” value stood at 18.73%. Besides, in series [3], the “Avg % Deletion” value is listed as 0.23%, the “Avg % Edit” value is listed as 15.97% and the “Avg % Insert” value is reported as 15.80%.

In the case of “AUAGGAGUAGGGGCUCAGCA (tested as dual guide RNA, chemistry not given here) [CR003383]”, in series [1], the “# Sites” value was determined as 1. Further, in series [2], the “Avg % Deletion” value is listed as 13.70%, the “Avg % Edit” value was 15.70% and the “Avg % Insert” value is listed as 2.07%. Besides, in series [3], the “Avg % Deletion” value turned out to be 5.27%, the “Avg % Edit” value is reported as 8.57% and the “Avg % Insert” value was found to be 3.37%.

(Values after patent US11795460B2, “Compositions and methods for TTR gene editing and treating ATTR amyloidosis” (Intellia Therapeutics, Inc., priority 2017, dated 2023).)
